{
  "source": "patent US9815796B2",
  "about": "(Merck Sharp & Dohme Corp., priority 2013, dated 2017)",
  "data": [
    {"molecular_target": "Rhesus PDE2A3 (Macaca mulatta, UniProt B3VTJ2)", "sequence (B3VTJ2 1-941)": "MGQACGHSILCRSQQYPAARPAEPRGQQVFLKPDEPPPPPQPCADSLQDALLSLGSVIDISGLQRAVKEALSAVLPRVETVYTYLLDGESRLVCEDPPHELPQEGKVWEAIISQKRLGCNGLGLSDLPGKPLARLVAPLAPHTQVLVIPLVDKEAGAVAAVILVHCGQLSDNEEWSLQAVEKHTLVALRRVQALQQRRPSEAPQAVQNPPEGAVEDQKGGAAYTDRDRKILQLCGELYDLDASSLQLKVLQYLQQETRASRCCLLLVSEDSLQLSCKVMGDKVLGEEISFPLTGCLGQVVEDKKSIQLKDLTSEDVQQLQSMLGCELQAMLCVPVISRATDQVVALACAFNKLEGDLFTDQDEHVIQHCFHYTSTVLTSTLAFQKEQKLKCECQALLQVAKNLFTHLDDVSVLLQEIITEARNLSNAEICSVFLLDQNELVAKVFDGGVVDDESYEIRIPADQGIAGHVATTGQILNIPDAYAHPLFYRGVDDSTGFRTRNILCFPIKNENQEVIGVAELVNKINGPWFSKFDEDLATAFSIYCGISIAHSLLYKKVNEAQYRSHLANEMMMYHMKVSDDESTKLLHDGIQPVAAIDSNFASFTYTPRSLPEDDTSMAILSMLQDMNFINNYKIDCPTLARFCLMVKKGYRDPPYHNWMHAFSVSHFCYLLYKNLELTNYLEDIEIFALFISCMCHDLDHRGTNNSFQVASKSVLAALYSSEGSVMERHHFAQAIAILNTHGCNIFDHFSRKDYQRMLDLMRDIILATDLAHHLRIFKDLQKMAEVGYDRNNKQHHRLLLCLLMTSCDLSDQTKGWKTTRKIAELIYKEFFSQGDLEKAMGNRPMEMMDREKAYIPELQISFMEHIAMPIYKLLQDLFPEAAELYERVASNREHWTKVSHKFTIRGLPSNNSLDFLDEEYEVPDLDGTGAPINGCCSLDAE", "assay": "PDE2 fluorescence polarization (IMAP FP) inhibition assay, rhesus enzyme", "type": "biochemical, rhesus macaque", "conditions": "Rhesus PDE2, Lab A, at 1 uM; read-out: Rhesus PDE2 % inh. at 1 uM - Lab A", "method_in_brief": "(§1)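 IMAP FP (mP from parallel and perpendicular fluorescence against substrate-only control) was read ≥1 h after adding binding reagent. The preceding 60 min room-temperature reaction contained FAM-cAMP (50 nM) and cGMP (1 uM) in pH 7.2 Tris buffer with MgCl2 and DTT. Enzyme was supernatant of sonicated AD293 cells expressing rhesus PDE2A3; compounds were 3-fold titrated, DMSO 1% final.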", "units": {"inhibition at 1 µM": "%"}, "values": [
      {"compound": "CC(C)(C)c1ccc(CCNC(=O)c2cc(=O)[nH]c(-c3ccccc3)n2)cc1", "note": "[Example 375, N-[2-(4-tert-butylphenyl)ethyl]-6-oxo-2-phenyl-1,6-dihydropyrimidine-4-carboxamide]", "inhibition at 1 µM": 46}
    ]},
    {"molecular_target": "Rhesus PDE2A3 (Macaca mulatta, UniProt B3VTJ2)", "assay": "PDE2 fluorescence polarization (IMAP FP) inhibition assay, rhesus enzyme", "type": "biochemical, rhesus macaque", "conditions": "Rhesus PDE2, Lab A; read-out: Rhesus PDE2 Ki (nM) - Lab A", "method_in_brief": "as §1", "units": {"Ki": "nM"}, "values": [
      {"compound": "O=C(NCc1ccc(C(F)(F)F)cc1Cl)c1cc(=O)[nH]c(C2CC2)n1", "note": "[Example 229, N-[2-chloro-4-(trifluoromethyl)benzyl]-2-cyclopropyl-6-oxo-1,6-dihydropyrimidine-4-carboxamide]", "Ki": 864},
      {"compound": "O=C(N[C@@H](c1ccc(C(F)(F)F)cc1)C1CC1)c1cc(=O)[nH]c(-c2ncccn2)n1", "note": "[Example 94, N-{(R)-cyclopropyl[4-(trifluoromethyl)phenyl]methyl}-6-oxo-1,6-dihydro-2,2′-bipyrimidine-4-carboxamide]", "Ki": 20},
      {"compound": "CC(NC(=O)c1cc(=O)[nH]c(C2CC2)n1)c1ccccc1C(F)(F)F", "note": "(stereo not shown) [Example 220, 2-cyclopropyl-6-oxo-N-{1-[2-(trifluoromethyl)phenyl]ethyl}-1,6-dihydropyrimidine-4-carboxamide]", "Ki": 10700},
      {"compound": "O=C(NC(c1ccccc1)c1ccc(C(F)(F)F)cc1)c1cc(=O)[nH]c(-c2ncccn2)n1", "note": "(stereo not shown) [Example 78, 6-oxo-N-{phenyl[4-(trifluoromethyl)phenyl]methyl}-1,6-dihydro-2,2′-bipyrimidine-4-carboxamide]", "Ki": 1080},
      {"compound": "CC(C)(NC(=O)c1cc(=O)[nH]c(-c2ncccn2)n1)c1ccc(OC(F)(F)F)cc1", "note": "[Example 289, N-{1-methyl-1-[4-(trifluoromethoxy)phenyl]ethyl}-6-oxo-1,6-dihydro-2,2′-bipyrimidine-4-carboxamide]", "Ki": 2320},
      {"compound": "C[C@@H](NC(=O)c1cc(=O)[nH]c(-c2ncccn2)n1)c1ccc(CC(F)(F)F)cc1", "note": "[Example 107, 6-oxo-N-{(1R)-1-[4-(2,2,2-trifluoroethyl)phenyl]ethyl}-1,6-dihydro-2,2′-bipyrimidine-4-carboxamide]", "Ki": 21},
      {"compound": "CC(C)(C)c1ccc(CCNC(=O)c2cc(=O)[nH]c(-c3ccccc3)n2)cc1", "note": "[Example 375, N-[2-(4-tert-butylphenyl)ethyl]-6-oxo-2-phenyl-1,6-dihydropyrimidine-4-carboxamide]", "Ki": 1000},
      {"compound": "COc1ccc(Cc2nc(C(=O)NC3(C)CC3)cc(=O)[nH]2)cc1OC", "note": "[Example 5, 2-(3,4-dimethoxybenzyl)-N-(1-methylcyclopropyl)-6-oxo-1,6-dihydropyrimidine-4-carboxamide]", "Ki": 1150},
      {"compound": "Cc1nc(C(=O)N[C@@H](C)c2ccc(OC(F)F)cc2)cc(=O)[nH]1", "note": "[Example 56, (S)-N-(1-(4-(difluoromethoxy)phenyl)ethyl)-2-methyl-6-oxo-1,6-dihydropyrimidine-4-carboxamide]", "Ki": 4590},
      {"compound": "C[C@@H](NC(=O)c1cc(=O)[nH]c(C(C)(C)n2cccn2)n1)c1ccc(C(F)(F)F)cc1", "note": "[Example 7, 2-[1-methyl-1-(1H-pyrazol-1-yl)ethyl]-6-oxo-N-{(1R)-1-[4-(trifluoromethyl)phenyl]ethyl}-1,6-dihydropyrimidine-4-carboxamide]", "Ki": 2780},
      {"compound": "Cc1nc(C(=O)NC(C)c2ccc(C(C)(C)C)cc2)cc(=O)[nH]1", "note": "(single isomer, unassigned) [Example 310, (S)- or (R)-N-[1-(4-tert-butylphenyl)ethyl]-2-methyl-6-oxo-1,6-dihydropyrimidine-4-carboxamide]", "Ki": 5650},
      {"compound": "Cc1cc(C(F)(F)F)ccc1CNC(=O)c1cc(=O)[nH]c(-c2ccccc2)n1", "note": "[Example 180, N-[2-methyl-4-(trifluoromethyl)benzyl]-6-oxo-2-phenyl-1,6-dihydropyrimidine-4-carboxamide]", "Ki": 2050},
      {"compound": "CC(NC(=O)c1cc(=O)[nH]c(-c2ccccc2)n1)c1ccncc1", "note": "(stereo not shown) [Example 358, 6-oxo-2-phenyl-N-(1-pyridin-4-ylethyl)-1,6-dihydropyrimidine-4-carboxamide]", "Ki": 11600},
      {"compound": "O=C(NCc1ccc(C(F)(F)F)cc1Cl)c1cc(=O)[nH]c(-c2ccccc2)n1", "note": "[Example 181, N-[2-chloro-4-(trifluoromethyl)benzyl]-6-oxo-2-phenyl-1,6-dihydropyrimidine-4-carboxamide]", "Ki": 485},
      {"compound": "COc1ccc(C(NC(=O)c2cc(=O)[nH]c(-c3ncccn3)n2)c2ccc(C(F)(F)F)cc2)cc1", "note": "(stereo not shown) [Example 87, N-{(4-methoxyphenyl)[4-(trifluoromethyl)phenyl]methyl}-6-oxo-1,6-dihydro-2,2′-bipyrimidine-4-carboxamide]", "Ki": 1920},
      {"compound": "C[C@@H](NC(=O)c1cc(=O)[nH]c(-c2ncccn2)n1)c1ccc(C(F)(F)F)c2ccccc12", "note": "[Example 102, 6-oxo-N-{(1R)-1-[4-(trifluoromethyl)naphthalen-1-yl]ethyl}-1,6-dihydro-2,2′-bipyrimidine-4-carboxamide]", "Ki": 5120},
      {"compound": "Cc1nc(C(=O)NCc2ccc(C(F)(F)F)cc2C)cc(=O)[nH]1", "note": "[Example 23, 2-methyl-N-[2-methyl-4-(trifluoromethyl)benzyl]-6-oxo-1,6-dihydropyrimidine-4-carboxamide]", "Ki": 3920},
      {"compound": "CCC(NC(=O)c1cc(=O)[nH]c(C)n1)c1ccc(C(C)(C)C)cc1", "note": "(stereo not shown) [Example 12, N-[1-(4-tert-butylphenyl)propyl]-2-methyl-6-oxo-1,6-dihydropyrimidine-4-carboxamide]", "Ki": 102}
    ]},
    {"molecular_target": "Rhesus PDE2A3 (Macaca mulatta, UniProt B3VTJ2)", "assay": "PDE2 fluorescence polarization (IMAP FP) inhibition assay, rhesus enzyme", "type": "biochemical, rhesus macaque", "conditions": "Rhesus PDE2, Lab B; read-out: Rhesus PDE2 Ki (nM) - Lab B", "method_in_brief": "as §1", "units": {"Ki": "nM"}, "values": [
      {"compound": "C[C@H](O)[C@@H](NC(=O)c1cc(=O)[nH]c(-c2ncccn2)n1)c1ccc(C(F)(F)F)cc1", "note": "[Example 430, N-{(1S,2)S-2-hydroxy-1-[4-(trifluoromethyl)phenyl]propyl}-6-oxo-1,6-dihydro-2,2′-bipyrimidine-4-carboxamide]", "Ki": "> 2970"},
      {"compound": "CC(C)(C)c1ccc(CCNC(=O)c2cc(=O)[nH]c(-c3ccccc3)n2)cc1", "note": "[Example 375, N-[2-(4-tert-butylphenyl)ethyl]-6-oxo-2-phenyl-1,6-dihydropyrimidine-4-carboxamide]", "Ki": 2040},
      {"compound": "CC(NC(=O)c1cc(=O)[nH]c(-c2ccccc2)n1)c1cccc(-c2ccc(F)cc2)c1", "note": "(stereo not shown) [Example 396, N-[1-(4′-fluorobiphenyl-3-yl)ethyl]-6-oxo-2-phenyl-1,6-dihydropyrimidine-4-carboxamide]", "Ki": "~20300"},
      {"compound": "CC(NC(=O)c1cc(=O)[nH]c(-c2ccccc2)n1)c1ccccc1-c1ccccc1", "note": "(stereo not shown) [Example 416, N-(1-biphenyl-2-ylethyl)-6-oxo-2-phenyl-1,6-dihydropyrimidine-4-carboxamide]", "Ki": 1770},
      {"compound": "O=C(N[C@@H]1CCCc2cc(C(F)(F)F)ccc21)c1cc(=O)[nH]c(-c2ncccn2)n1", "note": "[Example 433, 6-oxo-N-[(1R)-6-(trifluoromethyl)-1,2,3,4-tetrahydronaphthalen-1-yl]-1,6-dihydro-2,2′-bipyrimidine-4-carboxamide]", "Ki": "~1430"},
      {"compound": "O=C(c1cc(=O)[nH]c(-c2ccccc2)n1)N1Cc2cnc(-c3ccccc3)nc2C1", "note": "[Example 409, 2-phenyl-6-[(2-phenyl-5,7-dihydro-6H-pyrrolo[3,4-d]pyrimidin-6-yl)carbonyl]pyrimidin-4(3H)-one]", "Ki": 3930},
      {"compound": "COc1ccc(C(C)(C)c2nc(C(=O)N[C@@H](c3ccc(SC(F)(F)F)cc3)C(C)(C)C)cc(=O)[nH]2)cc1", "note": "[Example 488, N-[(1R)-2,2-dimethyl-1-{4-[(trifluoromethyl)sulfanyl]phenyl}propyl]-2-[1-(4-methoxyphenyl)-1-methylethyl]-6-oxo-1,6-dihydropyrimidine-4-carboxamide]", "Ki": 116},
      {"compound": "C[C@H](c1ccc(C(F)(F)F)cc1)N(C)C(=O)c1cc(=O)[nH]c(-c2ccccc2)n1", "note": "[Example 389, N-methyl-6-oxo-2-phenyl-N-{(1R)-1-[4-(trifluoromethyl)phenyl]ethyl}-1,6-dihydropyrimidine-4-carboxamide]", "Ki": 8980},
      {"compound": "Cc1nc(C(=O)NC(C)(c2ccc(S(F)(F)(F)(F)F)cc2)C(C)C)cc(=O)[nH]1", "note": "(single isomer, unassigned) [Example 662, (S)- or (R)-N-{1,2-dimethyl-1-[4-(pentafluoro-λ^6-sulfanyl)phenyl]propyl}-2-methyl-6-oxo-1,6-dihydropyrimidine-4-carboxamide]", "Ki": "~1220"}
    ]}
  ]
}
